Data published in US9199963B2, “Heterocyclic compound” (Takeda Pharmaceutical Company Limited, priority 2013, dated 2015).

How the values were obtained:
human MCHR1 = biological target: T1, human MCHR1 (Homo sapiens, UniProt Q99705); assay: MCH receptor 1 antagonistic activity using Ca2+ mobilization assay; format: cell-based; conditions: test compound 0.1 μM; ligand MCH (4-19) 2 nM; human MCHR1-expressing CHO cells (clone #4); read-out: Inhibition rate % (0.1 μM)
T1 construct: expressed in transfected cells; host or cells: CHO dhfr- cells, clone #4
Experimental: Measurement of MCH Receptor 1 Antagonistic Activity of Test Compound Using Ca^2+ Mobilization Assay
Using an expression vector plasmid introduced with human MCHR1 gene for expression in animal cells, human MCHR1 gene was introduced into CHO cells (CHO dhfr^−) by Lipofectamine LTX (Invitrogen). The cells were cultured in selection MEMα medium [445 mL of MEMα medium without nucleic acid and added with 5 mL of Penicillin-Streptomycin (Invitrogen) and 50 mL of dialyzed fetal bovine serum]. Colony 24 clones grown in the selection medium, which were human MCHR1 gene-expressing CHO cell candidates, were selected. […] An integrated dispensing function fluorometer (CellLux, PerkinElmer) was used for Ca^2+ mobilization assay. […] The medium was removed, and the cells were washed with phosphate buffered saline (PBS). A Ca^2+ indicator dye reagent (DOJINDO LABORATORIES, Ca screening no-wash kit Fluo4) was added at 100 μL/well, and the dye was allowed to penetrate into the cells for 30 min in an incubator at 5% CO2, 37° C. The plate was set on a plate reader. First, a test compound solution diluted with an assay buffer [10 mM HEPES (pH 7.4), 1× assay buffer containing 0.1% BSA (DOJINDO LABORATORIES, attached to Ca screening no-wash kit Fluo4)] or DMSO solution was added at 50 μL/well, and then ligand MCH (4-19) peptide (final concentration 2 nM) diluted with assay buffer or DMSO was added at 50 μL/well, during which changes in intracellular fluorescence were measured at 2 second intervals.

[1] = test system: male diet-induced obese F344/Jcl rats; assay: Anorectic effect using male diet-induced obese F344/Jcl rats; format: in vivo, rat; conditions: oral, 5 mg/mL suspension in 0.5% methylcellulose at 2 mL/kg, two administrations; food intake for 2 days vs control group
Experimental: Evaluation of Anorectic Effect Using Male Diet-Induced Obese F344/Jcl Rats
Male diet-induced obese F344/Jcl rats (41-52 weeks old) fed with a high-fat diet (D12451: Research Diets) from 5 weeks old were used. From before the start of experiment, the rats were singly housed, given a powder high-fat diet (D12451M: Research Diets), and habituated to oral administration with tap water. The food intake from the evening of the day before the start of experiment to the next morning was measured, and the rats were grouped based on both the food intake and the body weight of the previous day. In the evening of the day of the start of experiment and the next day, 0.5% methylcellulose solution was orally administered to the control group, and 0.5% methylcellulose suspension of the test compound (5 mg/mL) was orally administered to the compound administration group at 2 mL/kg (6 per group for both control group and compound administration group). The food intake for 2 days from the initial administration was measured. The food intake inhibition rate of each compound administration group to the control group was calculated.

[2] = biological target: T2, human MCH receptor 1 (MCHR1) (Homo sapiens, UniProt Q99705); assay: Human MCH receptor 1 (MCHR1) competitive inhibitory activity using binding assay; conditions: test compound 0.1 μM; [125I]-MCH (4-19); human MCHR1-expressing CHO cellular membrane fraction; read-out: Binding inhibition rate % (0.1 μM)
T2 construct: expressed in transfected cells; host or cells: CHO cell clone 57 (described in WO01/82925); membrane fraction
Experimental: Determination of Human MCH Receptor 1 (MCHR1) Competitive Inhibitory Activity of Test Compound Using Binding Assay
1. Preparation of Membrane Fraction
In phosphate buffered saline (pH 7.4) supplemented with 5 mM EDTA (ethylenediaminetetraacetic acid) were respectively suspended human MCHR1-expressing CHO cells (1×10^8 cells) and centrifuged. Homogenate buffer (10 mL, 10 mM NaHCO3, 5 mM EDTA, pH 7.5, 0.5 mM PMSF (phenylmethylsulfonyl fluoride), 20 mg/L leupeptin, 4 mg/L E-64, 1 mg/L pepstatin A) was added to the pellets of the cells and, using Polytron Homogenizer, the mixture was homogenated. The supernatant obtained after centrifugation at 400×g for 10 min was further centrifuged at 100,000×g for 1 hr to give precipitate of the membrane fraction. The precipitate was suspended in 2 mL of assay buffer [20 mM Tris-HCl (pH 7.5), 5 mM EDTA, 0.5 mM PMSF, 20 mg/L leupeptin, 4 mg/L E-64, 1 mg/L pepstatin A]. The membrane fractions were suspended in assay buffer to a protein concentration of 2 mg/mL, and after dispensing, preserved at −80° C. and used upon thawing each time when in use.
The MCHR1 ligand binding inhibitory activity of the test compound was determined as follows.
The mixture was reacted with stirring at room temperature for 1 hr, and the plate was set on FilterMate Harvester (PerkinElmer). […] The glass filter plate was dried, MicroScint 0 (PerkinElmer) was added at 25 μL/well, and the resulting radioactivity was measured by TopCount liquid scintillation counter (PerkinElmer). The binding inhibition rate of the test compound was calculated by the following formula. Binding inhibition(%)=100−(radioactivity upon addition of test compound and hot MCH−radioactivity upon addition of cold MCH and hot MCH solution)/(radioactivity upon addition of DMSO solution and hot MCH−radioactivity upon addition of cold MCH and hot MCH solution)×100

hERG = hERG (Homo sapiens, UniProt Q12809); assay: hERG activity measurement by IonWorks Quattro; format: cell-based; conditions: 5 minutes exposure, hERG stably expressed in CHO cells (CYL3038)
hERG, sequence (Q12809 whole entry): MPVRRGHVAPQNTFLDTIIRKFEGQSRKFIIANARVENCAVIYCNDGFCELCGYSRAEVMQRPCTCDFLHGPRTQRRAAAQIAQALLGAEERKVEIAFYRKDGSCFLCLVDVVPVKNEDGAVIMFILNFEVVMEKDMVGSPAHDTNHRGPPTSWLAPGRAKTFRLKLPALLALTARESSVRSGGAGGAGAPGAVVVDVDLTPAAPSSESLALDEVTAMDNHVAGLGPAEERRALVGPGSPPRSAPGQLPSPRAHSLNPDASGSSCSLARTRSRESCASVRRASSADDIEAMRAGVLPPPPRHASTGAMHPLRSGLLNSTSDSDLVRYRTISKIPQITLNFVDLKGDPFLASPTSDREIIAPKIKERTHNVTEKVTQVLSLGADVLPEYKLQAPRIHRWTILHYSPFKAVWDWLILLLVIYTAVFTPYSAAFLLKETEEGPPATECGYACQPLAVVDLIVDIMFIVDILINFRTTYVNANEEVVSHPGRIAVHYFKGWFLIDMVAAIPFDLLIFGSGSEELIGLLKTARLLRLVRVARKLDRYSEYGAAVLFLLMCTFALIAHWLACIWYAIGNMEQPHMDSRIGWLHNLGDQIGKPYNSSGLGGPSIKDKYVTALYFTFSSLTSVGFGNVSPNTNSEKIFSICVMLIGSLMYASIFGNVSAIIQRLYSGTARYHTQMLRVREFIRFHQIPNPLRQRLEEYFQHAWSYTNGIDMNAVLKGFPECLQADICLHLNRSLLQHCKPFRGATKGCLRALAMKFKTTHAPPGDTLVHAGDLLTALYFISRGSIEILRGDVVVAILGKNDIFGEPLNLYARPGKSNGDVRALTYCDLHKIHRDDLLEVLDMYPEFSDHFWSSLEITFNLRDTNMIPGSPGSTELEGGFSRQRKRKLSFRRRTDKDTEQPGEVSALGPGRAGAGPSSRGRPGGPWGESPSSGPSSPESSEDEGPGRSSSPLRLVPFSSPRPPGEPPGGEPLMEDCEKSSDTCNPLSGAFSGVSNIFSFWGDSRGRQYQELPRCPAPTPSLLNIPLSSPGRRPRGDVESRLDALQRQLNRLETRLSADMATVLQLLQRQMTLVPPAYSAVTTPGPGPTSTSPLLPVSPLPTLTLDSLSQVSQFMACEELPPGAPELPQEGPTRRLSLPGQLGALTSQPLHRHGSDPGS
Experimental: A cell strain CYL3038 having hERG stably expressed in CHO cells was purchased from Millipore LIMITED. A subculture of CYL3038 was prepared using Ham's F-12 medium containing 10% FBS and 500 μg/mL Geneticin, under the presence of 5% CO2 at 32° C. hERG current inhibition was measured by PPC mode of IonWorks Quattro (Molecular Devices, Inc.). As an extracellular fluid, PBS (+) was used. As an intracellular fluid, 20 mM HEPES buffer (pH 7.3) containing 140 mM KCl, 2 mM MgCl2 and 1 mM EGTA was used, and the cell was perforated by amphotericin. As the voltage protocol, holding potential was set to −80 mV, prepulsevoltage was set to 40 mV (2 seconds) and test pulsevoltage was set to −50 mV (2 seconds). Current values before and after addition of compound are respectively recorded as pre-compound hERG current and post-compound hERG current.

T1 sequence (Q99705 whole entry): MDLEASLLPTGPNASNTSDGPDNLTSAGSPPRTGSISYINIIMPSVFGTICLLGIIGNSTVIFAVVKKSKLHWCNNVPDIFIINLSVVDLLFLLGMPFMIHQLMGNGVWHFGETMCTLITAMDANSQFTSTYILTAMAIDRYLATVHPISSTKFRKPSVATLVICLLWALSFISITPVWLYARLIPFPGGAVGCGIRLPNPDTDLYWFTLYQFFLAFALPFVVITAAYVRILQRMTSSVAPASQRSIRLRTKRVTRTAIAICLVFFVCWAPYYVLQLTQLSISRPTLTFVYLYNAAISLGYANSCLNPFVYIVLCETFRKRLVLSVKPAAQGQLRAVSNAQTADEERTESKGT
T2 sequence (Q99705 whole entry): as above

SMILES: Cc1c2cc(-n3ccc(OCc4ccc(Cl)cc4)cc3=O)ccc2nn1C [Example 1, 4-[(4-chlorobenzyl)oxy]-1-(2,3-dimethyl-2H-indazol-5-yl)pyridin-2(1H)-one]
- inhibition at 0.1 µM (human MCHR1): 83%
- Food intake suppression rate (%) [1]: 32.1%
- inhibition at 0.1 µM [2]: 72%
- % hERG inhibition (10 μM) (hERG): 22.1%

SMILES: Cc1c2cc(-n3ccc(OCc4ccc(Br)cc4)cc3=O)ccc2nn1C [Example 25, 4-[(4-bromobenzyl)oxy]-1-(2,3-dimethyl-2H-indazol-5-yl)pyridin-2(1H)-one]
- inhibition at 0.1 µM (human MCHR1): 84%
- Food intake suppression rate (%) [1]: 59.8%
- inhibition at 0.1 µM [2]: 57%

SMILES: Cc1c2cc(-n3ccc(OCc4csc(C(F)(F)F)c4)cc3=O)ccc2nn1C [Example 22, 1-(2,3-dimethyl-2H-indazol-5-yl)-4-{[5-(trifluoromethyl)thiophen-3-yl]methoxy}pyridin-2(1H)-one]
- inhibition at 0.1 µM (human MCHR1): 69%
- Food intake suppression rate (%) [1]: 50.7%
- inhibition at 0.1 µM [2]: 51%

SMILES: Cc1c2cc(-n3ccc(OCc4csc(C(F)(F)F)c4)cc3=O)ccc2nn1C1CC1 [Example 44, 1-(2-cyclopropyl-3-methyl-2H-indazol-5-yl)-4-{[5-(trifluoromethyl)thiophen-3-yl]methoxy}pyridin-2(1H)-one]
- inhibition at 0.1 µM (human MCHR1): 55%
- Food intake suppression rate (%) [1]: 30.6%
- inhibition at 0.1 µM [2]: 77%

SMILES: Cc1c2cc(-n3ccc(OCc4ccc(F)cc4)cc3=O)ccc2nn1C1CC1 [Example 6, 1-(2-cyclopropyl-3-methyl-2H-indazol-5-yl)-4-[(4-fluorobenzyl)oxy]pyridin-2(1H)-one]
- inhibition at 0.1 µM (human MCHR1): 70%
- Food intake suppression rate (%) [1]: 26.4%
- inhibition at 0.1 µM [2]: 72%

SMILES: Cc1c2cc(-n3ccc(OCc4csc(C(F)(F)F)n4)cc3=O)ccc2nn1C1CC1 [Example 46, 1-(2-cyclopropyl-3-methyl-2H-indazol-5-yl)-4-{[2-(trifluoromethyl)-1,3-thiazol-4-yl]methoxy}pyridin-2(1H)-one]
- inhibition at 0.1 µM (human MCHR1): 78%
- Food intake suppression rate (%) [1]: 13.3%
- inhibition at 0.1 µM [2]: 50%
